Reference: patent publication US6521431B1, “Biodegradable cross-linkers having a polyacid connected to reactive groups for cross-linking polymer filaments” (Access Pharmaceuticals, Inc., priority 1999, dated 2003)
Like-named read-outs stand apart in the source and are kept apart here. Blank lines part the entries; values can stand above or below the compound they belong to.

Legend:
[1] = Release of labeled macromolecule and labeled polymer backbone from degrading gel network; assay type: physicochemical; details: pH 7.3, 37° C., monitored at 550 nm (FIG. 7)
Description: Gels were formed by the same method as above, but in this case other compounds were included during the preparation of the gels to study the release of small molecules from the network. In one case, the network itself was labeled with a polymerizable derivative of tetramethyl rhodamine (TMRAHMAm) in order to show the release (degradation) of the network itself (see FIG. 6). In the other case fluorescent rhodamine labeled albumin (Molecular Probes, Eugene Oreg.) was included in the uncharged network to show diffusive release of a macromolecule from the network (see FIG. 7).
To a 3 mL test tube was charged TMRAHMAm (3.0 mg, 5.0 μmol; 30 μL of a 100 mg/mL solution in CHCl3) which was then placed under a 7 mtorr vacuum for 3 hours. […]
Gels were suspended in buffers of different pH's: All buffers were adjusted to the same ionic strength. The release of the rhodamine labeled albumin and the rhodamine labeled HPMA was monitored at 550 nm. 750 μL of the sample was removed from the vial and periodically measured on a spectrophotometer. […]
The examination of the release of macromolecules entrained in the polymer network provides another way to study the performance of these materials. […] Moreover, the release of a model macromolecular solute (TMRA-albumin, molecular weight of ^˜66,000 Da.) from the network is measured spectrophotometrically.

[2] = pH 7.3
Experimental: (§1) The gels in this section were made at a mole feed ratio of 1.5 mole % cross-linker, as a copolymer with 98.5 mole % HPMA. Before the gels were polymerized, three 1.0 mL plastic syringes to be used as a slab gel template were silylanized by briefly incubating them in a heptane solution containing Sigmacote and oven drying at 90° C.
(§2) The wire was held in place by a septa which was placed over the tip of the syringe, as the solution polymerized. This formed a hole in the center of the cylinder, which was later used as a place to insert a wire hanger for the initially brittle and finally fragile gel, in order to measure its swelling and degradation kinetics as a change of mass with time. Gelation occurred within one to five minutes and the syringe was allowed to sit for 4 hours at room temperature. At this point the wire was removed from the center of the solid and the end of the plastic syringe was removed with a razor blade. The plunger was then used to extrude the gel from the syringe in 100 μL increments which were cut into small cylinders as they hung out from the end of the syringe. The gels were then placed on tarred wire holders and the initial mass of the assembly was determined. The resulting clear isotropic gels had the composition of poly(HPMA-co-HPMAGlySuc) 98.5:1.5. The gels were then incubated in pH 5, 100 mM sodium acetate buffer for 24 hours. They were then charged into vials of differing pH to study the degradation kinetics.
(§3) The gels were placed in 15 mL vials containing 10 mL of buffers. The masses of wire holders were determined before the gels were placed on them. The original mass of the gel in its relaxed state was also known by subtraction from the total mass of the assembly. The original dry mass of the gel was determined by drying three gels in their relaxed state from each composition and determining the dry mass of the gel. These values were then used to calculate the inverse of the volume fraction of polymer in the gel (Qv) respectively, using the densities of the polymer and water. The incubation solutions were changed each time the gel was weighed. The gels were incubated in a gyratory water-bath shaker (New Brunswick Scientific, New Brunswick, N.J.). The temperature was regulated to be 37±2° C. and the shaker was set to 30 rotations per minute.
(§4) The property of the change of volume of the polymer network can be measured by weighing the gel at different time points.
(§5) Since the swelling is related to network cross-link density by weighing the macroscopic gels at various times throughout their swelling one can obtain information about the change in cross-link density and thus the rate of degradation.

[3] = Swelling of acrylic acid / cross-linker water absorbent gel in PBS; assay type: physicochemical; details: acrylic acid gel cross-linked with HPMAGlySuc, after incubating in PBS pH 7.4 for 3 days
Experimental: To a 5 mL test tube was charged acrylic acid (675 μL, 9.85 mmol), water (1120 μL) and HPMAGlySuc (73 mg, 0.15 mmol) (5b). The cross-linker was weighed into the mixture as described earlier. The mixture was homogenized and APS was added (66.6 μL, […]) from a 2.43 M solution in water. This solution was again mixed. To this solution was added TMED (137 μL, 0.287 mmol) from a 2.10 M pH 7.0 solution in water. The mixture was vortexed rapidly for 15 seconds and the polymerizing solution was charged into two 1.0 mL syringes that acted as a mold for the polymerization. The syringes were allowed to sit for four hours. The gel was removed from the syringe and cut into pieces (^˜100 μL cylinders). The mass of the cylinder was recorded and placed in a 20 mL vial containing 18 mL of PBS at pH 7.4. The gels were incubated overnight with buffer. The next day the buffer was changed twice in order to keep a constant external pH as the gel was charged. After incubating in PBS for 3 days the gel has swollen with water to approximately 20 times the total initial polymer volume.

[4] = Degradation (degradative swelling) of HPMA-co-cross-linker hydrogels in buffer; details: HPMA-co-XL gels, 1.5 mole % cross-linker, pH 7.3 buffer, 37° C.
Experimental: as §1, §2, §3, §4, §5

degradation / hydrolysis and swelling kinetics of the gel (in words) [2]: fastest hydrolysis and swelling kinetics
time to complete degradation of the gel [2]: about 5 days
SMILES: C=C(C)C(=O)NCC(C)OC(=O)COC(=O)COC(=O)CCC(=O)OCC(=O)OCC(=O)OC(C)CNC(=O)C(=C)C (stereo not shown) [HPMAGlyGlySuc, di[({[1-methyl-2-(2-methylprop-2-enoylamino)ethyl]oxycarbon-yl}methyl)oxycarbonyl]methylbutane-1,4-dioate]
release of rhodamine labeled HPMA polymer backbone [1]: largely occurs to the greatest extent at the onset of complete degradation of the polymer
release of rhodamine labeled albumin from the gel network [1]: more closely follows the swelling of the network

SMILES: C=C(C)C(=O)NCC(C)OC(=O)COC(=O)CCC(=O)OCC(=O)OC(C)CNC(=O)C(=C)C (stereo not shown) [HPMAGlySuc, di{[1-methyl-2-(2-methylprop-2-enoylamino)ethyl]oxycarbonyl}methyl butane-1,4-dioate]
swelling with water relative to total initial polymer volume [3]: approximately 20 times the total initial polymer volume

degradation / hydrolysis and swelling kinetics of the gel (in words) [4]: slower degradation than the glycolic
SMILES: C=C(C)C(=O)NCC(C)OC(=O)[C@H](C)OC(=O)CCC(=O)O[C@@H](C)C(=O)OC(C)CNC(=O)C(=C)C (stereo partly drawn) [HPMALacSuc, di(1S)-1-{[1-methyl-2-(2-methylprop-2-enoylamino)ethyl]oxycarbonyl}ethyl butane-1,4-dioate]

degradation / hydrolysis and swelling kinetics of the gel (in words) [4]: non-degradable
SMILES: C=C(C)C(=O)NCC(C)OC(=O)CCC(=O)OC(C)CNC(=O)C(=C)C (stereo not shown) [HPMASuc, bis-1-methyl-2-(2-methylprop-2enoylamino)ethyl-1,4-butanedioate, reference compound]
